How the values were obtained:
[1] = test system: PgUGT74A1 and PgUGT94B1; assay: In vitro glycosyltransferase assay with both PgUGT74A1 and PgUGT94B1 in a single reaction tube; assay type: biochemical, Panax ginseng; details: both enzymes in a single reaction tube, in the presence of UDP-Glc
Method: PPD (upper panel) or C-K (lower panel) was incubated with both of PgUGT74A1 and PgUGT94B1 in the presence of UDP-Glc. Then the reaction mixture was analyzed by HPLC. […] Rg3 and Rd converted by the above two enzymes are marked as black triangles;
(§1) A glycosyltransferase assay was performed in a reaction buffer (10 mM PBS buffer, pH 7) containing the purified PgUGT74A1 or PgUGT94B1 (30 μg), a ginsenoside compound (5 mM) and UDP-glucose (50 mM). For this assay, 10 different types of ginsenosides including PPD (Protopanaxadiol), PPT (Protopanaxatriol), Compound K (C-K), ginsenoside Rg3, Rh2, F2, Rd, Rg2, Rh1 and F1 were used, and the structures of the ginsenosides are shown in FIG. 1.
(§2) The reaction mixture was incubated at 35° C. for 12 hours, and then the products were analyzed by thin-layer chromatography (TLC) or high performance liquid chromatography (HPLC).
HPLC analysis was performed using ODS (2) C18 column (Phenomenex, USA). […]
Ginsenosides were detected by using a UV-detector (Younglin, Korea) at a wavelength of 203 nm. […]

[2] = test system: PgUGT94B1; assay: In vitro glycosyltransferase assay with purified recombinant PgUGT94B1; assay type: biochemical, Panax ginseng; details: ginsenoside 5 mM, UDP-glucose 50 mM, enzyme 30 μg, pH 7, 35° C., 12 hours
Method: as §1, §2
(§3) TLC analysis was performed using a mobile phase (acetone:methanol:DDW=65:35:10 vol/vol) and a 60F254 silica gel plate (Merck, Germany). The resolved product on the TLC plate was detected by spraying the plate with 10% (vol/vol) sulfuric acid (H2SO4) and heating it at 110° C. for 5 minutes.
(§4) HPLC analysis was performed using ODS (2) C18 column (Phenomenex, USA). Water and acetonitrile gradient application time; and a component ratio are as follows: at a flow rate of 1 ml per minute for 0 minute, 68% water and 32% acetonitrile; 8 minutes, 35% water and 65% acetonitrile; 12 minutes, 0% water and 100% acetonitrile; 20 minutes, 0% water and 100% acetonitrile; 20.1 minutes, 68% water and 32% acetonitrile; and 28 minutes, 68% water and 32% acetonitrile.
(§5) Ginsenosides were detected by using a UV-detector (Younglin, Korea) at a wavelength of 203 nm.
First, the recombinant PgUGT of Example 1, PgUGT94B1, was incubated with 10 different types of ginsenosides (PPD, C-K, Rh2, F2, Rg3, Rd, Rg2, Rh1, F1 and PPT) in the presence of UDP-glucose, and then the products converted by the recombinant PgUGT were analyzed by TLC.

[3] = test system: PgUGT74A1; assay: In vitro glycosyltransferase assay with purified recombinant PgUGT74A1; assay type: biochemical, Panax ginseng; details: ginsenoside 5 mM, UDP-glucose 50 mM, enzyme 30 μg, pH 7, 35° C., 12 hours
Method: as §1, §2, §3, §4, §5
First, the recombinant PgUGT of Example 1, PgUGT74A1, was incubated with 10 different types of ginsenosides (PPD, C-K, Rh2, F2, Rg3, Rd, Rg2, Rh1, F1 and PPT) in the presence of UDP-glucose, and the products converted by the recombinant PgUGT were analyzed by TLC.

[4] = test system: ginseng; assay: Concentrations of 4 major ginsenosides after spraying MeJA onto the leaf of ginseng; assay type: in vivo, Panax ginseng; details: MeJA sprayed onto the leaf of ginseng; versus untreated
Method: (§6) Total RNA was isolated from the leaf or root of 15-month-old ginseng using a spectrum plant total RNA kit (Sigma-Aldrich). 200 μM methyl jasmonate (MeJA) was sprayed onto the leaves of ginseng everyday for a total of 5 days, and samples were collected on the 6th day. The 1 μg of total RNA was used for cDNA synthesis.
In this regard, the concentrations of 4 major ginsenosides were measured after spraying MeJA onto the leaf of ginseng. The treatment of MeJA increased the concentrations of two PPD-type ginsenosides, Rd and Rb1, by 1.55 and 1.14 times respectively (FIG. 6c). In addition, the treatment of MeJA increased the concentrations of two PPT-type ginsenosides, Rg1 and Re, by 2.61 and 1.45 times respectively.

[5] = test system: PgPPTS (protopanaxatriol synthase); assay: Quantitative RT-PCR of PgPPTS expression in ginseng leaves sprayed with MeJA; assay type: in vivo, Panax ginseng; details: 200 μM MeJA sprayed on leaves of 15-month-old ginseng everyday for 5 days, samples on 6th day; normalized to tubulin
Method: as §6
(§7) Expression levels of different genes were examined by a quantitative RT-PCR using the primer sets listed in the following Table 2, and the results were normalized to the expression level of tubulin.
(§8) The 15-month old ginseng grown in a growth chamber under LD conditions was collected, and MeJA was sprayed onto its leaves everyday for a total of 5 days. To analyze expression level of the ginsenoside biosynthetic genes, samples were collected on the 6th days. […] However, expression of PgPPTS was not induced by MeJA under the conditions of the present invention.

[6] = test system: PgPPDS (protopanaxadiol synthase); assay: Quantitative RT-PCR of PgPPDS expression in ginseng leaves sprayed with MeJA; assay type: in vivo, Panax ginseng; details: 200 μM MeJA sprayed on leaves of 15-month-old ginseng everyday for 5 days, samples on 6th day; normalized to tubulin
Method: as §6, §7, §8

[7] = test system: PgUGT94B1; assay: Quantitative RT-PCR of PgUGT94B1 expression in ginseng leaves sprayed with MeJA; assay type: in vivo, Panax ginseng; details: 200 μM MeJA sprayed on leaves of 15-month-old ginseng everyday for 5 days, samples on 6th day; normalized to tubulin
Method: as §6, §7, §8

[8] = test system: PgUGT74A1; assay: Quantitative RT-PCR of PgUGT74A1 expression in ginseng leaves sprayed with MeJA; assay type: in vivo, Panax ginseng; details: 200 μM MeJA sprayed on leaves of 15-month-old ginseng everyday for 5 days, samples on 6th day; normalized to tubulin
Method: as §6, §7, §8

[9] = test system: PgDS (dammarenediol-II synthase); assay: Quantitative RT-PCR of PgDS expression in ginseng leaves sprayed with MeJA; assay type: in vivo, Panax ginseng; details: 200 μM MeJA sprayed on leaves of 15-month-old ginseng everyday for 5 days, samples on 6th day; normalized to tubulin
Method: as §6, §7, §8

SMILES | conversion of the ginsenoside by PgUGT74A1 and PgUGT94B1 together (HPLC analysis) [1] | conversion of the ginsenoside by PgUGT94B1 (HPLC analysis) [2] | conversion of the ginsenoside by PgUGT74A1 (HPLC analysis) [3] | conversion of the ginsenoside by PgUGT74A1 (TLC analysis) [3] | conversion of the ginsenoside by PgUGT94B1 (TLC analysis) [2] | other results
CC(C)=CCCC(C)(O)[C@H]1CC[C@]2(C)[C@@H]1[C@H](O)C[C@@H]1[C@@]3(C)CC[C@H](O)C(C)(C)[C@@H]3CC[C@]12C (stereo in doubt) [PPD, Protopanaxadiol] | successfully converted into Rg3 | did not convert PPD and C-K into other ginsenosides | converted PPD and C-K into ginsenoside Rh2 and F2 respectively | converted PPD and C-K into ginsenoside Rh2 and ginsenoside F2 respectively |  | 
CC(C)=CCC[C@](C)(O[C@@H]1O[C@H](CO)[C@@H](O)[C@H](O)[C@H]1O)[C@H]1CC[C@]2(C)[C@@H]1[C@H](O)C[C@@H]1[C@@]3(C)CC[C@H](O)C(C)(C)[C@@H]3CC[C@]12C [C-K, Compound K] | successfully converted into Rd | did not convert PPD and C-K into other ginsenosides | converted PPD and C-K into ginsenoside Rh2 and F2 respectively | converted PPD and C-K into ginsenoside Rh2 and ginsenoside F2 respectively |  | 
CC/C=C\C[C@H]1C(=O)CC[C@@H]1CC(=O)OC [MeJA, Methyl(1R,2R)-3-Oxo-2-(2Z)-2-pentenyl-cyclopentaneacetate] |  |  |  |  |  | increase of the concentration of PPD-type ginsenoside Rb1 by MeJA treatment [4]: 1.14 times; increase of the concentration of PPD-type ginsenoside Rd by MeJA treatment [4]: 1.55 times; increase of the concentration of PPT-type ginsenoside Re by MeJA treatment [4]: 1.45 times; increase of the concentration of PPT-type ginsenoside Rg1 by MeJA treatment [4]: 2.61 times; expression of PgPPTS after MeJA treatment [5]: not induced; expression of PgPPDS after MeJA treatment [6]: enhanced the expression; expression level of PgUGT94B1 after MeJA treatment [7]: higher expression level; expression level of PgUGT74A1 after MeJA treatment [8]: higher expression level; expression of PgDS after MeJA treatment [9]: enhanced the expression
CC(C)=CCC[C@](C)(O[C@@H]1O[C@H](CO)[C@@H](O)[C@H](O)[C@H]1O)[C@H]1CC[C@]2(C)[C@@H]1[C@H](O)C[C@@H]1[C@@]3(C)CC[C@H](O[C@@H]4O[C@H](CO)[C@@H](O)[C@H](O)[C@H]4O)C(C)(C)[C@@H]3CC[C@]12C [ginsenoside F2] |  | converted ginsenoside Rh2 and F2 into ginsenoside Rg3 and Rd respectively | did not convert ginsenoside Rh2 and F2 |  | converted ginsenoside Rh2 and ginsenoside F2 into ginsenoside Rg3 and ginsenoside Rd respectively | 
CC(C)=CCC[C@](C)(O)[C@H]1CC[C@]2(C)[C@@H]1[C@H](O)C[C@@H]1[C@@]3(C)CC[C@H](O[C@@H]4O[C@H](CO)[C@@H](O)[C@H](O)[C@H]4O)C(C)(C)[C@@H]3CC[C@]12C [ginsenoside Rh2] |  | converted ginsenoside Rh2 and F2 into ginsenoside Rg3 and Rd respectively | did not convert ginsenoside Rh2 and F2 |  | converted ginsenoside Rh2 and ginsenoside F2 into ginsenoside Rg3 and ginsenoside Rd respectively | 
